Values of other authors, collected in US20210401795A1, “Compressible Cannabinoid Pharmaceutical Composition” (Imbucanna, Inc., priority 2019, published 2021).

How the values were obtained:
[1] = pure CBD, twice-daily dosages, pediatric patients; ranging from total seizure freedom to the stated reductions
[2] = not given; remark: listed apart in the source

Row | SMILES | seizure reduction [1] | solubility in water | duration of appetite stimulant effect ([2]; after administration) [h] | duration of action for psychoactive effects ([2]; after oral administration) [h] | onset of action ([2]; after oral administration) [h] | peak effect ([2]; after oral administration) [h]
1 | C=C(C)[C@@H]1CCC(C)=C[C@H]1c1c(O)cc(CCCCC)cc1O [CBD, cannabidiol] | 25-80% | poorly soluble in water |  |  |  | 
2 | CCCCCc1cc(O)c2c(c1)OC(C)(C)[C@@H]1CCC(C)=C[C@@H]21 [Dronabinol, (−)-trans-Δ^9-tetrahydrocannabinol] |  |  | ≥ 24 | 4 to 6 | 0.5 to 1 | 2 to 4
